Reference: US6316594A, “Antimicrobial peptide isolated from parasilurus asotus and its uses” (priority 1998, dated 2001)
Peptide text beside a SMILES is read from it.

Key:
[1] = test system: Bacillus subtilis ATCC 62037; experiment: MIC, microdilution in 96-well plate; assay type: cell-based; settings: overnight 37° C., 3% TSB
From the text: (§1) All of the microorganisms used in the invention were obtained from the American Type Culture Collection (ATCC) Used were Bacillus subtilis ATCC 62037, Staphylococcus aureus ATCC 15752, Streptococcus mutans ATCC 25175, Pseudomonas putida ATCC 17426, Escherichia coli ATCC 27325, Salmonella typhimurium ATCC 15277, Seratia sp. ATCC 21074, Cryptococcus neoformans ATCC 34881, Saccharomyces cerevisiae ATCC 44774 and Candida albicans ATCC 10231.
(§2) The parasin I and its derivatives obtained in Example I were lyophilized, resuspended in water and assayed for antimicrobial activity against B. subtilis ATCC 62037. The purity of the isolated peptides was analyzed by reverse-phase HPLC and MALDI-MS (Kratos Kompact MALDI, England). The antimicrobial activity of the samples was determined during each purification step by the radial diffusion assay using B. subtilis ATCC 62037 according to the method of Lehrer et al. ((1991) J. Immunol. Methods, 137, 167-173). A 20 ml culture of B. subtilis ATCC 62037 cell in mid-logarithmic phase was washed with 10 mM sodium phosphate buffer (NAPB), pH 7.4, at […], and resuspended in 10 ml of the same buffer. A cell suspension containing 1×10^6 bacterial colony forming units (CFUs) was added to 6 ml of an underlayer agar (10 mM sodium phosphate, 1% (v/v) trypticase soy broth (TSB), 1% (w/v) agarose, pH 6.5) and this resulting mixture was poured into a Petri dish. Samples were added, at an amount of 5 μl, directly in 3-mm wells which were made on the solidified underlayer agar. After incubation for 3 hours at 37° C., the underlayer agar was covered with a nutrient-rich top agar overlay (6% (w/v) TSB, 1% (w/v) agarose) and incubated overnight at 37° C. Antimicrobial activity was determined by observing the zone of suppression of bacterial growth around the 3-mm wells. The minimal inhibitory concentrations (MICs) of the isolated peptide against the microorganisms were determined as described by Moore et al. ((1991) J. Biol. Chem., 266, 19851-19857). 100 μl microorganism suspensions (10^5 CFU/ml) in 3% (w/v) TSB were mixed with serial two-fold dilutions of the isolated peptide in a sterilized 96-well microtiter plate (Nunc, Denmark). The final concentration of the peptide ranged 0.5-200 μg/ml. The 96-well plate was incubated overnight at 37° C. and the inhibition of growth was determined by measuring the absorbance at 620 nm on a microplate reader, such as that sold by B10-Rad, U.S.A., under the brand name of Model 550. The MIC was defined as the lowest concentration of peptide that inhibited growth. In respect to the test for antimicrobial activity, 10 different microorganisms, including Gram-negative bacteria, Gram-positive bacteria and fungi were used.

[2] = test system: Staphylococcus aureus ATCC 15752; experiment: MIC, microdilution in 96-well plate; assay type: cell-based; settings: overnight 37° C., 3% TSB
From the text: as §1, §2

[3] = test system: Candida albicans ATCC 10231; experiment: MIC, microdilution in 96-well plate; assay type: cell-based; settings: overnight 37° C., 3% TSB
From the text: as §1, §2

[4] = test system: Salmonella typhimurium ATCC 15277; experiment: MIC, microdilution in 96-well plate; assay type: cell-based; settings: overnight 37° C., 3% TSB
From the text: as §1, §2

[5] = test system: Saccharomyces cerevisiae ATCC 44774; experiment: MIC, microdilution in 96-well plate; assay type: cell-based; settings: overnight 37° C., 3% TSB
From the text: as §1, §2

[6] = test system: Escherichia coli ATCC 27325; experiment: MIC, microdilution in 96-well plate; assay type: cell-based; settings: overnight 37° C., 3% TSB
From the text: as §1, §2

[7] = test system: Streptococcus mutans ATCC 25175; experiment: MIC, microdilution in 96-well plate; assay type: cell-based; settings: overnight 37° C., 3% TSB
From the text: as §1, §2

[8] = test system: Pseudomonas putida ATCC 17426; experiment: MIC, microdilution in 96-well plate; assay type: cell-based; settings: overnight 37° C., 3% TSB
From the text: as §1, §2

[9] = test system: Serratia sp.; experiment: MIC, microdilution in 96-well plate; assay type: cell-based; settings: overnight 37° C., 3% TSB
From the text: as §1, §2

[10] = test system: Cryptococcus neoformans ATCC 34881; experiment: MIC, microdilution in 96-well plate; assay type: cell-based; settings: overnight 37° C., 3% TSB
From the text: as §1, §2

[11] = test system: human erythrocytes; experiment: Hemolytic activity assay; settings: peptide 200 μg/ml
Method: The hemolytic activity of the antimicrobial peptide was assayed as described by Park et al. (9).

K G R G K Q G G K V R A K A K T R S S (KGRGKQGGKVRAKAKTRSS) [Seq. No. 1]
4 µg/mL: MIC [9]
0.5 µg/mL: MIC [1] | MIC [6] | MIC [7]
1 µg/mL: MIC [2] | MIC [3] | MIC [4] | MIC [5] | MIC [10]
2 µg/mL: MIC [8]

K G R G K Q G G K V R A K A K T R (KGRGKQGGKVRAKAKTR) [Seq. No. 2, synthetic derivative deficient of 2 carboxyl terminal residues of parasin I]
0.5 µg/mL: MIC [1] | MIC [6] | MIC [7]
2 µg/mL: MIC [5] | MIC [8] | MIC [9]
1 µg/mL: MIC [2] | MIC [3] | MIC [4] | MIC [10]

Magainin 2 [reference compound]
12 µg/mL: MIC [10]
50 µg/mL: MIC [1] | MIC [2] | MIC [8] | MIC [9]
100 µg/mL: MIC [6] | MIC [7]
25 µg/mL: MIC [3] | MIC [4] | MIC [5]

K G R G K Q G G K V R A K A K (KGRGKQGGKVRAKAK) [Seq. No. 3, synthetic derivative deficient of 4 carboxyl terminal residues of parasin I]
4 µg/mL: MIC [3] | MIC [9]
1 µg/mL: MIC [1] | MIC [6] | MIC [7]
2 µg/mL: MIC [2] | MIC [4] | MIC [5] | MIC [8] | MIC [10]

CC(C)[C@H](NC(=O)[C@H](CCCCN)NC(=O)CNC(=O)CNC(=O)[C@H](CCC(N)=O)NC(=O)[C@H](CCCCN)NC(=O)CNC(=O)[C@H](CCCNC(=N)N)NC(=O)CNC(=O)[C@@H](N)CCCCN)C(=O)N[C@@H](CCCNC(=N)N)C(=O)N[C@@H](C)C(=O)N[C@@H](CCCCN)C(=O)N[C@@H](C)C(=O)N[C@@H](CCCCN)C(=O)N[C@H](C(=O)N[C@@H](CCCNC(=N)N)C(=O)N[C@@H](CO)C(=O)N[C@@H](CO)C(=O)O)[C@@H](C)O [Parasin I, Lys-Gly-Arg-Gly-Lys-Gln-Gly-Gly-Lys-Val-Arg-Ala-Lys-Ala-Lys-Thr-Arg-Ser-Ser] (H-KGRGKQGGKVRAKAKTRSS-OH)
0.2%: hemolysis [11]

Buforin I [reference compound]
4 µg/mL: MIC [1] | MIC [2] | MIC [3] | MIC [4] | MIC [5] | MIC [8] | MIC [10]
8 µg/mL: MIC [6] | MIC [7] | MIC [9]
